{"source": "patent US20050112555A1", "about": "“Cytidine deaminase activators, deoxycytidine deaminase activators, Vif antagonists, and methods of screening for molecules thereof” (priority 2003, published 2005)", "system": "intracellular CEM15", "assay": "Western blot of CEM15 abundance after co-expression of CEM15 and Vif in 293T cells", "type": "cell-based, human", "settings": "within 36-48 h post-transfection", "excerpt": "CEM15 abundance can be quantified by western blotting as described above. Small molecules that bind to any of the aforementioned peptides can be evaluated for their ability to protect or restore CEM15 abundance using the aforementioned western blotting systems of whole cell extracts of cells that have been transfected with CEM15 and Vif wherein these proteins are co-expressed in 293T cells (conditions that result in CEM15 destruction) and evaluated (by western blotting of cell extracts) for the ability of VDA peptides of varying size and sequence to restore CEM15 abundance. Co-expression of CEM15 and Vif by transfection in 293T cells results ˜99% ablation of intracellular CEM15 within 36-48 h post-transfection. […] All peptides are tested according to this schedule. Expression of CEM15 and Vif are driven from the CMV promoter of pcDNA3 plasmids."}
{"substance": "Vif: HIV-1 viral infectivity factor, SEQ ID NO: 7; induces degradation of CEM15", "values": [{"measurement": "ablation of intracellular CEM15", "result": "~99", "unit": "%"}]}
